The assay addresses human Arginine Vasopressin Receptor 1a (AVPR1a) (Homo sapiens (Human), UniProt P37288). Nature of the assay: Vasopressin V1A receptor antagonist assay (AVP-evoked calcium, FLIPR, CHO-AVPR1a cells). The assay is classed as cell-based. As to the method: The purpose of this assay was to determine the inhibitory effect of synthesized compounds on the Vasopressin V1a receptor. The assay as performed in Chinese Hamster Ovary (CHO) cells expressing the human Arginine Vasopressin Receptor 1a (AVPR1a). Arginine Vasopressin (AVP) evokes an increase in intracellular calcium in CHO-AVPR1a cells which is measured in a fluorescence assay on the FLIPR^TETRA using calcium sensitive dyes. Test compounds were assessed for their ability to affect the magnitude of the response to AVP, with antagonists showing a concentration-dependent reduction in the AVP-mediated fluorescence. Compounds were tested in duplicate in a 10-point, 1:3 dilution series starting at a nominal concentration of 3 μM in the assay.
CHO-AVPR1a cells were maintained in routine culture in T175 Flasks at 37° C., 5% CO2. The growth medium consists of Ham's F12 media supplemented with 10% v/v fetal bovine serum, 1× non-essential amino acids, and 0.4 mg/ml Geneticin G418.
On day one, cells were harvested from T175 flasks when they are 80-90% confluent by first washing the cell monolayer with PBS and then dissociated using trypsin 0.05%/EDTA (3 mL for a T175 Flask). The flasks were incubated at room temperature until the cells detached. To the cell suspension, 10 ml of growth media was added and the cell density determined using the Vi-Cell automated cell counter. The cells were spun at 1000 rpm for 3 minutes, then the supernatant was carefully removed and discarded. The cell pellet was re-suspended at 6.0e^5 cells/ml in growth media. 25 μL of cells in growth media was dispensed into each well (15,000 cells per well) of a poly-D-lysine coated black, clear bottomed, 384-well plate. The plates were incubated at 37° C., 5% CO2 overnight.
At the start of each assay day, the potency of AVP was assessed and an EC80 concentration determined for subsequent compound profiling. Assays were performed using a two-step addition protocol on the FLIPR^TETRA; first addition of 5 μl of control or test compound at 10× final in assay buffer with 15 min incubation at 37° C., 5% CO2 followed by 10 μl of AVP at 6× final concentration in assay buffer. […] The assay buffer consisted of HBSS (+Ca/+Mg) supplemented with 20 mM HEPES, and for the preparation of the AVP agonist only, 0.1% w/v bovine serum albumin. The assay was initiated by the removal of growth media from the cells and replacement with 45 μl of Calcium-6 dye (Molecular Devices) prepared at 1× in assay buffer. Cells are loaded with dye for 60-90 min at 37° C., 5% CO2 before initiation of the FLIPR^TETRA protocol. […] At the end of the incubation period, 10 μl of AVP in assay buffer containing 0.1% BSA was added at the previously determined EC80 concentration.

Read-outs that look alike come from different tables or passages of the source.

human Arginine Vasopressin Receptor 1a (AVPR1a), sequence (P37288 whole entry): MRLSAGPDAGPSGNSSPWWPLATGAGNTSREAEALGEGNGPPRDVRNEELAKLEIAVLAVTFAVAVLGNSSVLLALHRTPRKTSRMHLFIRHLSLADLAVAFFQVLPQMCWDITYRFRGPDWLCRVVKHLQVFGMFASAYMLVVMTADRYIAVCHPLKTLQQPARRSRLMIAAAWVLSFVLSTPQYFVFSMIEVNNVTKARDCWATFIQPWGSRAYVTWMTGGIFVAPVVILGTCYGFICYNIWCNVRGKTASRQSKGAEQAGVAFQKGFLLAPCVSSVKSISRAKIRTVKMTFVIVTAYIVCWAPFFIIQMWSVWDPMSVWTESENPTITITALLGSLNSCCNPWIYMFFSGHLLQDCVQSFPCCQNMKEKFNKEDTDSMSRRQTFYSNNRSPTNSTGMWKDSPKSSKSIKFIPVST

For orientation: IC50 means the point on the concentration scale where inhibition reaches its midpoint. `Cc1cc(N2CC3(CC(c4nnc5n4-c4ccc(Cl)cc4CN(C4(C)CC4)C5)C3)C2)ncc1F` [compound 245]: the IC50 (read-out: V1a IC50) is less than 100 nM.

On to `Cc1nc(N2CC3(CC(c4nnc5n4-c4ccc(Cl)cc4CN(C)C5)C3)C2)no1` [compound 266, 3-(6-(8-chloro-5-methyl-5,6-dihydro-4H-benzo[f][1,2,4]triazolo[4,3-a][1,4]diazepin-1-yl)-2-azaspiro[3.3]heptan-2-yl)-5-methyl-1,2,4-oxadiazole], for which the IC50 lay within 500 to 1000 nM.

On to `CC(C)OC(=O)N1Cc2cc(Cl)ccc2-n2c(C3CC4(C3)CN(c3ncc(F)cn3)C4)nnc2C1C` (single isomer, unassigned) [Cpd 201B], for which the IC50 (read-out: V1a IC50) was in the range of 500 to 1000 nM.

As to `COC(=O)N1Cc2cc(Cl)ccc2-n2c(C3CC4(C3)CN(c3ccncn3)C4)nnc2C1C` (single isomer, unassigned) [Cpd 184B], the IC50 (read-out: V1a IC50) is greater than 1000 nM.

As for `Cc1ccnc(N2CC3(CC(c4nnc5n4-c4ccc(Cl)cc4CN(C)C5)C3)C2)c1` [compound 241, 8-chloro-5-methyl-1-(2-(4-methylpyridin-2-yl)-2-azaspiro[3.3]heptan-6-yl)-5,6-dihydro-4H-benzo[f][1,2,4]triazolo[4,3-a][1,4]diazepine], the IC50 (read-out: V1a IC50) was less than 100 nM.

Turning to `Fc1cncnc1N1CC2(CC(c3nnc4n3-c3ccc(Cl)cc3CN(C3CC3)C4)C2)C1` [compound 247], the IC50 (read-out: V1a IC50) is less than 100 nM.

In the case of `Cc1cncnc1N1CC2(CC(c3nnc4n3-c3ccc(Cl)cc3CN(C)C4)C2)C1` [compound 251], the IC50 lay in the range of 100 to 500 nM.

With `Cc1ccnc(N2CC3(CC(c4nnc5n4-c4ccc(Cl)cc4CN(C4CC4)C5)C3)C2)c1` [compound 217, 8-chloro-5-cyclopropyl-1-(2-(4-methylpyridin-2-yl)-2-azaspiro[3.3]heptan-6-yl)-5,6-dihydro-4H-benzo[f][1,2,4]triazolo[4,3-a][1,4]diazepine], where the note is “read-out: V1a IC50”, the IC50 is less than 100 nM.

Take `N#Cc1ccnc(N2CC3(CC(c4nnc5n4-c4ccc(Cl)cc4CN(C4CC4)C5)C3)C2)n1` [compound 248]: the IC50 (read-out: V1a IC50) was less than 100 nM.

Turning to `COC(=O)N1Cc2cc(Cl)ccc2-n2c(C3CC4(C3)CN(c3ncc(F)cn3)C4)nnc2C1C` (single isomer, unassigned) [Cpd 170B], the IC50 (read-out: V1a IC50) lay within 500 to 1000 nM.

For the compound `Cc1nccnc1N1CC2(CC(c3nnc4n3-c3ccc(Cl)cc3CN(C3CC3)C4)C2)C1` [compound 222], the IC50 (read-out: V1a IC50) was less than 100 nM.

For the compound `CC1(N2Cc3cc(Cl)ccc3-n3c(nnc3C3CC4(C3)CN(c3ncc(F)cn3)C4)C2)CC1` [compound 261], for the setting “read-out: V1a IC50”, the IC50 was less than 100 nM.

For the compound `COC(=O)N1Cc2cc(Cl)ccc2-n2c(C3CC4(C3)CN(c3ncccn3)C4)nnc2C1C` (single isomer, unassigned) [Cpd 166B], the IC50 (read-out: V1a IC50) fell in the range of 500 to 1000 nM.

Consider `Cc1cncc(N2CC3(CC(c4nnc5n4-c4ccc(Cl)cc4CN(C4CC4)C5)C3)C2)n1` [compound 221], for which the IC50 (read-out: V1a IC50) is less than 100 nM.

Turning to `Cc1cnc(N2CC3(CC(c4nnc5n4-c4ccc(Cl)cc4CN(C)C5)C3)C2)nc1` [compound 239], the IC50 fell in the range of 100 to 500 nM.

As to `CC(=O)N1Cc2cc(Cl)ccc2-n2c(nnc2C2CC3(C2)CN(c2cccnn2)C3)C1` [compound 66], the IC50 was 100 to 500 nM.

On to `CC(C)OC(=O)N1Cc2cc(Cl)ccc2-n2c(C3CC4(C3)CN(c3ccncn3)C4)nnc2C1C` (single isomer, unassigned) [Cpd 187B], for which the concentration for half-maximal inhibition (IC50) (read-out: V1a IC50) is greater than 1000 nM.

With `O=C(C1C[C@H]1F)N1Cc2cc(Cl)ccc2-n2c(nnc2C2CC3(C2)CN(c2ccc(F)cn2)C3)C1` (stereo partly shown) [compound 158], the IC50 (read-out: V1a IC50) is less than 100 nM.

On to `CC1c2nnc(C3CC4(C3)CN(c3ccc(F)cn3)C4)n2-c2ccc(Cl)cc2CN1C(=O)OC1CC1` (single isomer, unassigned) [Cpd 191B], for which, for the setting “read-out: V1a IC50”, the IC50 is greater than 1000 nM.

For `Cc1cc(N2CC3(CC(c4nnc5n4-c4ccc(Cl)cc4CN(C4CC4)C5)C3)C2)ncc1F` [compound 235], where the note is “read-out: V1a IC50”, the IC50 is less than 100 nM.

`Fc1ccc(N2CC3(CC(c4nnc5n4-c4ccc(Cl)cc4CNC5)C3)C2)nc1` [compound 60, 8-chloro-1-(2-(5-fluoropyridin-2-yl)-2-azaspiro[3.3]heptan-6-yl)-5,6-dihydro-4H-benzo[f][1,2,4]triazolo[4,3-a][1,4]diazepine]: the IC50 was 100 to 500 nM.

Consider `CCOC(=O)N1Cc2cc(Cl)ccc2-n2c(C3CC4(C3)CN(c3ncccn3)C4)nnc2C1C` (single isomer, unassigned) [Cpd 168B], for which the IC50 (read-out: V1a IC50) is 100 to 500 nM.

Regarding `CN1Cc2cc(Cl)ccc2-n2c(nnc2C2CC3(C2)CN(C(=O)C2CCOCC2)C3)C1` [compound 27], the IC50 (read-out: V1a IC50) is greater than 1000 nM.

For the compound `N#Cc1cccc(N2CC3(CC(c4nnc5n4-c4ccc(Cl)cc4CN(C4CC4)C5)C3)C2)n1` [compound 228], the IC50 (read-out: V1a IC50) was less than 100 nM.

Turning to `CC1(N2Cc3cc(Cl)ccc3-n3c(nnc3C3CC4(C3)CN(c3nccc(C#N)n3)C4)C2)CC1` [compound 263], where the note is “read-out: V1a IC50”, the 50% inhibitory concentration (IC50) was less than 100 nM.

As for `COC(=O)N1Cc2cc(Cl)ccc2-n2c(C3CC4(C3)CN(c3ncncc3F)C4)nnc2C1C` (single isomer, unassigned) [Cpd 188B], where the note is “read-out: V1a IC50”, the IC50 was greater than 1000 nM.

For the compound `CN1Cc2cc(Cl)ccc2-n2c(nnc2C2CC3(C2)CN(C(=O)OC2CCOCC2)C3)C1` [compound 29], the IC50 (read-out: V1a IC50) was greater than 1000 nM.

Turning to `CN1Cc2cc(Cl)ccc2-n2c(nnc2C2CC3(C2)CN(c2ncc(F)cn2)C3)C1` [compound 236, 8-chloro-5-methyl-1-(2-(5-fluoropyrimidin-2-yl)-2-azaspiro[3.3]heptan-6-yl)-5,6-dihydro-4H-benzo[f][1,2,4]triazolo[4,3-a][1,4]diazepine], the IC50 (read-out: V1a IC50) was less than 100 nM.

As for `CN1Cc2cc(Cl)ccc2-n2c(nnc2C2CC3(C2)CN(c2nn(C)c4ncccc24)C3)C1` [compound 231], the IC50 lay in the range of 100 to 500 nM.

In the case of `CCOC(=O)N1Cc2cc(Cl)ccc2-n2c(C3CC4(C3)CN(c3nccc(C(F)(F)F)n3)C4)nnc2C1C` (stereo not shown) [compound 190], the IC50 (read-out: V1a IC50) is less than 100 nM.

`N#Cc1ccnc(N2CC3(CC(c4nnc5n4-c4ccc(Cl)cc4CN(C4CC4)C5)C3)C2)c1` [compound 232]: the IC50 (read-out: V1a IC50) was less than 100 nM.

Regarding `Cc1nccc(N2CC3(CC(c4nnc5n4-c4ccc(Cl)cc4CN(C4CC4)C5)C3)C2)n1` [compound 270], the half-inhibitory concentration (IC50) lay in the range of 100 to 500 nM.

With `Cc1ccc(N2CC3(CC(c4nnc5n4-c4ccc(Cl)cc4CN(C4(C)CC4)C5)C3)C2)nc1` [compound 265], the IC50 fell in the range of 100 to 500 nM.

Turning to `CN1Cc2cc(Cl)ccc2-n2c(nnc2C2CC3(C2)CN(C(=O)c2ccccn2)C3)C1` [compound 24], for the setting “read-out: V1a IC50”, the IC50 was greater than 1000 nM.

In the case of `CN1Cc2cc(Cl)ccc2-n2c(nnc2C2CC3(C2)CN(C(=O)CC2CC2)C3)C1` [compound 32], under “read-out: V1a IC50”, the IC50 is greater than 1000 nM.

As for `COc1cc(N2CC3(CC(c4nnc5n4-c4ccc(Cl)cc4CN(C4CC4)C5)C3)C2)ncc1F` [compound 249], the IC50 (read-out: V1a IC50) was less than 100 nM.

As to `CC1(N2Cc3cc(Cl)ccc3-n3c(nnc3C3CC4(C3)CN(c3ccncn3)C4)C2)CC1` [compound 254], the IC50 lay within 100 to 500 nM.

On to `CC(C)N1Cc2cc(Cl)ccc2-n2c(nnc2C2CC3(C2)CN(c2cccnc2)C3)C1` [compound 51], for which the IC50 was in the range of 100 to 500 nM.

`CN1Cc2cc(Cl)ccc2-n2c(nnc2C2CC3(C2)CN(c2nc4cnccc4n2C)C3)C1` [compound 258]: the IC50 (read-out: V1a IC50) is greater than 1000 nM.

`Cc1cnc(N2CC3(CC(c4nnc5n4-c4ccc(Cl)cc4CN(C4(C)CC4)C5)C3)C2)nc1` [compound 253]: the IC50 was 100 to 500 nM.

Take `CN1Cc2cc(Cl)ccc2-n2c(nnc2C2CC3(C2)CN(S(C)(=O)=O)C3)C1` [compound 34, 8-chloro-5-methyl-1-(2-(methylsulfonyl)-2-azaspiro[3.3]heptan-6-yl)-5,6-dihydro-4H-benzo[f][1,2,4]triazolo[4,3-a][1,4]diazepine]: the IC50 was 500 to 1000 nM.

As to `CN1Cc2cc(Cl)ccc2-n2c(nnc2C2CC3(C2)CN(S(=O)(=O)C2CC2)C3)C1` [compound 26], the IC50 lay within 100 to 500 nM.

`CCOC(=O)N1Cc2cc(Cl)ccc2-n2c(C3CC4(C3)CN(c3ccc(F)cn3)C4)nnc2C1C` (single isomer, unassigned) [Cpd 169B]: the IC50 (read-out: V1a IC50) lay in the range of 100 to 500 nM.

With `COCCN1Cc2cc(Cl)ccc2-n2c(nnc2C2CC3(C2)CN(c2cnccn2)C3)C1` [compound 43], the IC50 (read-out: V1a IC50) is less than 100 nM.

Take `CN1Cc2cc(Cl)ccc2-n2c(nnc2C2CC3(C2)CN(c2ccncn2)C3)C1` [compound 243]: the IC50 lay within 100 to 500 nM.

Turning to `Cc1cncc(N2CC3(CC(c4nnc5n4-c4ccc(Cl)cc4CN(C)C5)C3)C2)n1` [compound 237], the IC50 (read-out: V1a IC50) was less than 100 nM.

Source of the values: patent US11186577B2, “Vasopressin receptor antagonists and products and methods related thereto” (BlackThorn Therapeutics, Inc., priority 2017, dated 2021).
